Measurements published in paper PMC4171606, “A novel copper(I) complex induces ER-stress-mediated apoptosis and sensitizes B-acute lymphoblastic leukemia cells to chemotherapeutic agents” (Oncotarget, 2014).

How the values were obtained:
Assay type in all cases: cell-based, human
[1] = system: RS4;11, SEM, Jurkat and THP-1 cell lines and PBMC from healthy donors; assay: Cellular uptake, intracellular copper by GF-AAS; details: 6.25, 12.5 and 25 μM CP, 24 h, leukemic cells vs healthy PBMC
Protocol: In an attempt to correlate the cytotoxic activity of CP with its cellular uptake, the intracellular copper content was evaluated in RS4;11, SEM, Jurkat and THP-1 cell lines and PBMC from healthy donors treated for 24 h with increasing concentrations of CP. The intracellular copper amount (Figure 1, panel A) was quantified by GF-AAS analysis (Graphite Furnace Atomic Absorption Spectrometry).
FIGURE 1 CP uptake and effects on cell cycle and apoptosis induction A) RS4;11, SEM, THP1, Jurkat cell lines and healthy PBMC were incubated with 6.25, 12.5 and 25 μM of CP for 24 h. The intracellular accumulation of CP was detected by GF-AAS analysis. B) SEM and RS4;11 cells were treated with the indicated concentrations of CP for 24 h, cell cycle distribution and Sub-G1 contents were analyzed by flow cytometry after cell staining with PI. The percentages of each phase of the cell cycle (G1, S, G2/M) were calculated on living cells whereas the percentages of cells with hypodiploid DNA content peak (subG1) was referred to cell population characterized by the appearance of subG1 peak. C) SEM and RS4;11 cells were incubated with 2.5 μM CP for the indicated times and analyzed by flow cytometry after double staining with Annexin-V-FITC and PI. Data are represented as mean ± S.E.M. of three independent experiments. […]

[2] = system: Bone marrow cells from healthy donors; assay: Annexin-V-FITC/PI viability by flow cytometry, 24 h; details: CP 2.5 μM and 5 μM
Protocol: CP growth inhibitory activity was measured on primary cultures derived from pediatric patients affected by B-acute lymphoblastic leukemia. […] In particular, in resting and in PHA-stimulated PBMC, and in CD19^+ cells GI50 was higher than 10 μM confirming that CP preferentially affects leukemia cells.
FIGURE 6 CP effects on B-ALL primary cultures (A) Blast cells from six B-ALL patients were incubated for 24 h with different concentrations of CP. For the sake of comparison CD19^+ cells from peripheral blood of healthy donors, and PBMC were also incubated with CP in the presence or absence of PHA. Cell viability were assayed by MTT analysis. Data are represented as mean ± S.E.M of four independent experiments. (B) Bone marrow cells from healthy donors were treated for 24 h with CP (2.5 μM and 5 μM). Cell viability was evaluated on the whole population by flow cytometry after staining the cells with Annexin-V-FITC and PI. are represented as mean ± S.E.M of 3 independent experiments. […]
Surface exposure of PS by apoptotic cells was measured by flow cytometry with a Coulter Cytomics FC500 (Beckmann Coulter, USA) by adding Annexin V-FITC and propidium iodide (PI) to cells according to the manufacturer's instructions (Annexin-V Fluos, Roche Diagnostic, Italy).

GRP78 = assay: Western blot, ER stress marker GRP78
Protocol: Moreover we found an increase in CHOP expression starting from 3 h of CP treatment. […] Whilst GRP78, due to its chaperon activity, exerts a protective function, CHOP promotes ER-stress cell death, thus the rapid activation of pro-death signals and the late activation of pro-survival chaperone GRP78 could explain the commitment toward apoptosis induced by CP. Moreover, in unresolvable stress conditions, an increased CHOP expression has been correlated to the induction of the expression of many apoptotic genes and to the down-regulation prosurvival genes, such as Bcl-2 [30].
FIGURE 4 CP induces ER stress Western Blot analysis showing expression of GRP78 and CHOP in SEM (A) and in RS4;11 (B) cells. Cells were treated with CP 2.5 μM for the indicated times. (C) PCR analysis showing the induction of XBP1 splicing in SEM and RS4;11 cells. Cells were treated with CP (2.5 μM) or Tunicamycin (2 μg/ml) as positive control for 12 h.
Cells were treated with CP and, after different times, were collected, centrifuged and washed with ice cold phosphate-buffered saline (PBS). The pellet was then resuspended in lysis buffer as described. The protein concentration in the supernatant was determined using the BCA protein assay (Pierce, Italy). […]

F[P-](F)(F)(F)(F)F.OCP(CO)CO.OCP(CO)CO.OCP(CO)CO.OCP(CO)CO.[Cu+] [CP, [Cu(thp)4][PF6]]
intracellular copper content [1]: marked increase of copper intracellular content in comparison with healthy PBMC | viability of lymphocyte and monocyte populations [2]: did not affect the viability | time of remarkable increase of GRP78 expression (GRP78; RS4;11, CP 2.5 μM): 12 h | time of remarkable increase of GRP78 expression (GRP78; SEM, CP 2.5 μM): 6 h
